Results as given in patent US20230201124A1, “LUBRICANT FOR PHARMACEUTICALS AND NUTRACEUTICALS” (JRS Pharma GmbH & Co. KG, priority 2021, published 2023).

How the values were obtained:
[1] = Tablet hardness versus compression force of lubricated tablets; format: physicochemical; details: for direction of change in tablet hardness: Example 8: lowest level/shortest blend time versus highest level/longest blend time
Experimental: Blends consisting of five separate levels of each lubricant type were prepared, with the lubricant blending time set for up to 60 minutes. After the addition of lubricant to the ibuprofen-MCC premix and the initiation of blending, a portion of each blend (enough to make a representative number of tablets) was withdrawn at each of 5 intervals (5, 15, 30, 45 and 60 minutes). […]
Tablet hardnesses and ejection forces were measure for each variant.

[2] = Lubricant-API stability of 1:1 aspirin-lubricant blends by NIR spectra; format: physicochemical; details: all tested storage conditions, 2 months
Description: Example 9 is a study which examined the lubricant-API stability of rice bran wax, in comparison with magnesium stearate. Aspirin was chosen as a model API for the study. Magnesium stearate is known to interact unfavorably with aspirin. Aspirin also has a known tendency to convert to salicylic acid in the presence of moisture.
Aspirin and lubricant were ground together at a 1:1 ratio by weight with a glass mortar and pestle, then portioned into three vials which were labeled for room temperature (ambient) storage or for storage closed or open in a stability chamber at 40° C. and 75% RH. Near-IR (NIR) spectra were obtained periodically over two months of storage under these three different conditions.
FIG. 22 is an NIR spectra of the study components of Example 9, and provides the following depictions: aspirin (close dash), magnesium stearate (far dash), rice bran wax (solid) and salicylic acid (dotted). Near IR spectra were obtained on a Metrohm 6500 RCA (Rapid Content Analyzer) reflectance NIR (JRS #1219) and a standard normal variate (SNV) pre-processing routine was used to normalize the spectra for comparison.

[3] = Example 8: lowest level/shortest blend time versus highest level/longest blend time (1.0%, 60 min), at each compression force

Compound | direction of change in tablet hardness [1] | drop in tablet hardness [1, 3] | tablet hardness ([1]; Example 8: 1% lubricant, 60 minute blend, FIG. 18) | drop in tablet hardness ([1]; Example 8: 15 kN compaction force, 0.125%/5 min versus 1.0%/60 min, FIG. 19) | tablet hardness ([1]; Example 8: highest lubricant level (1.0%), 5 minute blend, FIG. 17) | interaction between lubricant and aspirin [2]
CCCCCCCCCCCCCCCCCCOC(=O)/C=C/C(=O)[O-].[Na+] [Pruv®, sodium stearyl fumarate] | drop in tablet hardness | < 3 N | – | – | – | –
magnesium stearate | drop in tablet hardness | 11-20 N | softest tablets | ~16 N | lower tablet hardness values than sodium stearyl fumarate and hydrogenated vegetable oil | interacts with aspirin
